pIC50: −log10 of the molar value. Read-outs that look alike come from different tables or passages of the source.
How the values were obtained:
[1] = test system: MOLM-13 (carrying MLL-AF9); assay: Inhibition of proliferation of human tumor cells (Alamar Blue, 7 days), MOLM-13; format: cell-based; settings: MOLM-13 cells (carrying MLL-AF9), method calls the value GI50
Outline: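 Seven-day continuous compound exposure in duplicate wells, with 0.1% DMSO vehicle. Proliferation is quantified by Alamar Blue fluorescence and expressed as GI50, using Day 0 readings as the low reference.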

Menin-MLL = molecular target: T1, Menin-MLL (Homo sapiens, UniProt O00255); assay: Inhibitory activity against Menin-MLL binding (fluorescence polarization); settings: 150 nM His-Menin, 15 nM FITC-MLL, 25°C for 60 min
T1 construct: His-Menin (M1-L615 end); purchased BIORTUS BP9210
T1 sequence (O00255 1-615 isoform O00255-1): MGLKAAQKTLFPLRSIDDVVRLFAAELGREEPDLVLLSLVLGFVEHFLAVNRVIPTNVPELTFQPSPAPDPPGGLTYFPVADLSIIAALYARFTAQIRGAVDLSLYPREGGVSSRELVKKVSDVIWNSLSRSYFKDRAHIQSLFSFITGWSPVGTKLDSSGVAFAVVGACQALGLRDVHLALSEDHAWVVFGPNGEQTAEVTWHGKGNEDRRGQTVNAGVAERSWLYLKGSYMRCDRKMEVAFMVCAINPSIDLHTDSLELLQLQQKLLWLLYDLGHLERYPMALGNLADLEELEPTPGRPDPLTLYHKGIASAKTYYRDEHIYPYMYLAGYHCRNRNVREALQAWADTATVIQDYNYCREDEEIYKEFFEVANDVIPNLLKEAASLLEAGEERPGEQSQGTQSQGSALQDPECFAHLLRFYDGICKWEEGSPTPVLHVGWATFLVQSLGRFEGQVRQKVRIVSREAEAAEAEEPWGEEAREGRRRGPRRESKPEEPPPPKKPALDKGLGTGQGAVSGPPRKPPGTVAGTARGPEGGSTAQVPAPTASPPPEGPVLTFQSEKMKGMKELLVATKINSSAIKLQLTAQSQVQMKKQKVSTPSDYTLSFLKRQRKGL
Outline: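 His-Menin (M1-L615, 150 nM) preincubated with compound 15 min at 25 °C in HEPES pH 7.5, 50 mM NaCl, 1 mM DTT, 0.01% BSA, then 15 nM FITC-MLL4-43 peptide added for 60 min at 25 °C. Fluorescence polarization read; IC50 from 4-parameter logistic fit, duplicates.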

[2] = test system: MV-4-11 (carrying MLL-AF4); assay: Inhibition of proliferation of human tumor cells (Alamar Blue, 7 days), MV-4-11; format: cell-based; settings: MV-4-11 cells (carrying MLL-AF4), method calls the value GI50
Description: Experimental Example 2: Evaluation of Inhibitory Activity of Compounds Against Proliferation of Human Tumor Cells
• Human acute lymphoblastic leukemia cells MV-4-11, purchased from American Type Culture Collection, Catalog Number: CRL-9591; • Human acute myeloid leukemia cells MOLM-13, purchased from COBIOER BIOSCIENCES CO., LTD, Catalog Number: CBP60678; • Human acute myeloid leukemia cells KG-1a, purchased from American Type Culture Collection, Catalog Number: CCL-246.1; • Inverted Microscope, purchased from Olympus Tokyo; • Countess™ Automated Cell Counter, purchased from Invitrogen, Model: C10281; and • Multilabel Reader, purchased from Bio-Tek, Model: Synergy HT.
MV-4-11 cells were cultured in an IMDM medium containing 10% fetal bovine serum, KG-a cells were cultured in an IMDM medium containing 20% fetal bovine serum, or MOLM-13 cells were cultured in an RPMI-1640 medium containing 20% fetal bovine serum, each supplemented with 100 U·mL^-1 penicillin and 100 µg·mL^-1 streptomycin. These cells were cultured at 37°C with 5% CO2. The suspensions of individual cell lines were prepared in their respective media and seeded into 96-well plates at a density of 4,000 cells/well for MV-4-11 and MOLM-13 cells, or 3,000 cells/well for KG-1a cells. On the day of the experiment, a compound stock solution was diluted in a 3-fold or 4-fold gradient using DMSO. Each gradient-diluted stock solution was then further diluted 250-fold with a complete medium to prepare a series of working solutions at different concentrations. Subsequently, 100 µL of working solution (containing a 2-fold concentration series of the test compound) was added to each well, with duplicate wells set up for each concentration.
Seven days after compound addition (on Day 7), an Alamar Blue assay reagent (MCE, HY-111391 / CS-0040317) was added to measure the fluorescence intensity in each well. Wells containing the cells in the growth medium supplemented with 0.1% DMSO (Day 7) served as high-read control wells. The readouts from the wells containing the cells in the growth medium supplemented with 0.1% DMSO on the day of compound addition (Day 0) served as low-reading control well. GraphPad Prism software was used to calculate the concentration required to inhibit 50% of cell proliferation (GI50), which serves as a cell proliferation inhibition activity index.

[3] = fluorescence polarization, read-out: Menin-MLL IC50
[4] = Menin-MLL IC50, fluorescence polarization

`Cc1nc(F)c2c(-c3ccc(F)cc3C(=O)N3CCOC[C@H]3C)cc(C3CN([C@@H](CC[C@H]4CNCCO4)C(C)C)C3)cn12` [Example 244-2, (3R)-4-[5-fluoro-2-(1-fluoro-3-methyl-6-{1-[(3S)-4-methyl-1-[(2S)-morpholin-2-yl]pentan-3-yl]azacyclobutan-3-yl}imidazo[1,5-a]pyridin-8yl)benzoyl]-3-methylmorpholine] was tested, and the pIC50 ([1]; Homo sapiens, 168 h) was 6.89, the pIC50 (Menin-MLL; [3]) was 7.47 and the pIC50 ([2]; Homo sapiens, MV4-11, 168 h) was 7.27.
`Cc1nc(F)c2c(-c3ccc(F)cc3C(=O)N3CCOC[C@H]3C)cc(C3CN([C@@H](C)C4CCN(C(=O)C5(O)CC5)CC4)C3)cn12` [Example 278] was tested, and the pIC50 ([1]; Homo sapiens, 168 h) was 7.62, the pIC50 (Menin-MLL; [3]) was 7.96 and the pIC50 ([2]; Homo sapiens, MV4-11, 168 h) was 8.08.
Work on `CO[C@H]1CCN([C@H]2C[C@@H](C(C(C)C)N3CC(c4cc(-c5ccc(F)cc5C(=O)N5CCOC[C@H]5C)c5cnn(C)c5c4)C3)C2)C1` (stereo partly drawn) [Example 196-2, 4-{4-fluoro-2-[(3R)-3-methylmorpholin-4-carbonyl]phenyl}-1-methyl-6-(1-{2-methyl-1-[(1s,3s)-3-[(3S)-3-methoxypyrrolidin-1-yl]cyclobutyl]propyl}azacyclobutan-3-yl)-1H-indazole] yielded a pIC50 ([1]; Homo sapiens, MOLM-13, 168 h) of 7.55, a pIC50 (Menin-MLL; [4]) of 7.77 and a pIC50 ([2]; Homo sapiens, MV4-11, 168 h) of 8.02.
Compound `CCN(C(=O)c1cc(F)ccc1-c1cc([C@H]2CCN(C[C@]3(O)CC[C@H](NS(=O)(=O)CC)CC3)C2)cc2c1cnn2C)C(C)C` [Compound 55-1-1, N-ethyl-5-fluoro-2-[1-methyl-6-[(3R)-1-{[(1r,4s)-4-ethanesulfonamido-1-hydroxylcyclohexyl]methyl}pyrrolidin-3-yl]-1H-indazol-4-yl]-N-(isopropyl)benzamide] has a pIC50 [1] of 7.36, a pIC50 (Menin-MLL; [3]) of 7.85 and a pIC50 [2] of 7.73.
In the case of `Cc1nc(F)c2c(-c3ccc(F)cc3C(=O)N3[C@H](C)COC[C@H]3C)cc(C3CN(CC4CCN(C(=O)c5cn[nH]c5)CC4)C3)cn12` [Example 247], the pIC50 ([1]; Homo sapiens, 168 h) was 7.66, the pIC50 (Menin-MLL; [3]) was 8.02 and the pIC50 ([2]; Homo sapiens, MV4-11, 168 h) was 8.04.
In the case of `CC(=O)N1CCC(CN2CC(c3cc(-c4ccc(F)cc4C(=O)N4CCOC[C@H]4C)c4c(F)nc(C)n4c3)C2)CC1` [Example 225], the pIC50 ([1]; Homo sapiens, 168 h) was 7.22, the pIC50 (Menin-MLL; [3]) was 7.55 and the pIC50 ([2]; Homo sapiens, MV4-11, 168 h) was 7.60.
`COCC(=O)N1CCC(CN2CC(c3cc(-c4ccc(F)cc4C(=O)N4[C@H](C)COC[C@H]4C)c4c(F)nc(C)n4c3)C2)CC1` [Example 224] gave a pIC50 ([1]; Homo sapiens, 168 h) of 7.44, a pIC50 (Menin-MLL; [3]) of 7.59 and a pIC50 ([2]; Homo sapiens, MV4-11, 168 h) of 7.85.
In the case of `CO[C@@H]1CN(CCC[C@H](C(C)C)N2CC(c3cc(-c4ccc(F)cc4C(=O)N4CCOC[C@H]4C)c4c(F)nc(C)n4c3)C2)C[C@H]1O` (relative stereo) [Example 291, (3r,4r)-1-[(4R)-4-[3-(1-fluoro-8-{4-fluoro-2-[(3R)-3-methylmorpholin-4-carbonyl]phenyl}-3-methylimidazo[1,5-a]pyridin-6-yl)azacyclobutan-1-yl]-5-methylhexyl]-4-methoxypyrrolidin-3-ol], the pIC50 ([1]; Homo sapiens, 168 h) was 8.15, the pIC50 (Menin-MLL; [3]) was 8.52 and the pIC50 ([2]; Homo sapiens, MV4-11, 168 h) was 8.80.
`CCS(=O)(=O)N[C@H]1CC[C@H](CN2CC[C@@H](c3cc(-c4ccc(F)cc4C(=O)N(CC(F)F)C(C)C)c4cnc(C)n4c3)C2)CC1` [Example 164, N-(2,2-difluoroethyl)-5-fluoro-2-{3-methyl-6-[(3S)-1-{[(1r,4r)-4-ethanesulfonamidocyclohexyl]methyl}pyrrolidin-3-yl]imidazo[1,5-a]pyridin-8-yl]-N-(isopropyl)benzamide] gave a pIC50 ([1]; Homo sapiens, MOLM-13, 168 h) of 8.21, a pIC50 (Menin-MLL; [4]) of 8.22 and a pIC50 ([2]; Homo sapiens, MV4-11, 168 h) of 8.66.
`CCS(=O)(=O)N[C@@H]1CC[C@@H](CN2CC(c3cc(-c4ccc(F)cc4C(=O)N(CC(F)F)C(C)C)c4cnc(C)n4c3)C2)OC1` [Example 150, N-(2,2-difluoroethyl)-2-[6-(1-{[(2S,5R)-5-ethanesulfonamidooxacyclohexan-2-yl]methyl}azacyclobutan-3-yl)-3-methylimidazo[1,5-a]pyridin-8-yl]-5-fluoro-N-(isopropyl)benzamide] gave a pIC50 ([1]; Homo sapiens, 168 h) of 7.44, a pIC50 (Menin-MLL; [3]) of 7.61 and a pIC50 ([2]; Homo sapiens, MV4-11, 168 h) of 7.68.
`Cc1nc(F)c2c(-c3ccc(F)cc3C(=O)N3[C@H](C)COC[C@H]3C)cc(C3CN(CC4CCN(C(=O)C5(O)CC5)CC4)C3)cn12` [Example 214] gave a pIC50 ([1]; Homo sapiens, 168 h) of 7.92, a pIC50 (Menin-MLL; [3]) of 8.30 and a pIC50 ([2]; Homo sapiens, MV4-11, 168 h) of 8.12.

Reference: patent publication EP4782453A1 (Beyang Therapeutics Co., Ltd., priority 2023, dated 2025)
